Three compounds from patent US9763445B2, “Safened herbicidal compositions comprising a pyridine carboxylic acid herbicide” (Dow AgroSciences, LLC, priority 2014, dated 2017) can be followed below.

For data set [1], the system named is lambsquarters (CHEAL). As to the kind of experiment: Postemergence greenhouse trial, % visual injury on lambsquarters. It is filed as in vivo, Chenopodium album. Conditions: Chenopodium album, post-emergence, read-out: % visual injury, Ob. The protocol:
(§1) Seeds of the desired test plant species were planted in Sun Gro MetroMix® 306 planting mixture, which typically has a pH of 6.0 to 6.8 and an organic matter content of about 30 percent, in plastic pots with a surface area of 103.2 square centimeters (cm^2). When required to ensure good germination and healthy plants, a fungicide treatment and/or other chemical or physical treatment was applied. The plants were grown for 7-36 days (d) in a greenhouse with an approximate 14-hour (h) photoperiod which was maintained at about 23° C. during the day and 22° C. during the night. Nutrients and water were added on a regular basis and supplemental lighting was provided with overhead metal halide 1000-Watt lamps as necessary. The plants were employed for testing when they reached the second or third true leaf stage.
(§2) Weighed amounts of technical material were dissolved in a volume of 97:3 volume per volume (v/v) acetone/dimethyl sulfoxide (DMSO) to stock solutions. […] The concentrated stock solutions were diluted with an aqueous mixture of 1.5% v/v of Agri-dex crop oil concentrate to provide the appropriate application rates. Compound requirements are based upon a 12 milliliter (mL) application volume at a rate of 187 liters per hectare (L/ha). Stocks solutions of the safeners were prepared following the same procedure. Spray solutions of the safeners and experimental compound mixtures were prepared by adding the stock solutions to the appropriate amount of dilution solution to form a 12 mL spray solution in two-way combinations. Formulated compounds were applied to the plant material with an overhead Mandel track sprayer equipped with 8002E nozzles calibrated to deliver 187 L/ha over an application area of 0.503 square meters (m^2) at a spray height of 18 inches (43 centimeters (cm)) above average plant canopy. Control plants were sprayed in the same manner with the solvent blank. All herbicide application (component a) rates are in g ae/ha and all safener (component b) rates are in g ai/ha.
(§3) The treated plants and control plants were placed in a greenhouse as described above and watered by sub-irrigation to prevent wash-off of the test compounds. After 20-22 d, the condition of the test plants as compared with that of the control plants was determined visually and scored on a scale of 0 to 100 percent where 0 corresponds to no injury and 100 corresponds to complete kill. The condition of the test plants was compared with that of the control plants as determined visually and scored on a scale of 0 to 100 percent, where 0 corresponds to no injury and 100 corresponds to complete kill. Colby's equation was used to determine the herbicidal effects expected from the mixtures.
(§4) The safener cloquintocet-mexyl was combined with compound 1, compound 2, compound 4, compound 5, and compound 6, and applied to corn/maize (ZEAMX) and spring wheat (TRZAS) and the phytotoxicity of the herbicidal compositions was measured. In addition, the efficacy of the herbicidal composition on velvetleaf (ABUTH, Abutilon theophrasti), pigweed (AMARE, Amaranthus retroflexus), winter rape (BRSNW, Brassica napus), lambsquarters (CHEAL, Chenopodium album), thistle (CIRAR, Cirsium arvense), nutsedge (CYPES, Cyperus esculentus), poinsettia (EPHHL, Euphorbia heterophylla), wild buckwheat (POLCO, Polygonum convolvulus), giant foxtail (SETFA, Setaria faberi), and chickweed (STEME, Stellaria media) was evaluated.
(§5) The safener cloquintocet-mexyl was combined with compound 1, compound 2, compound 3, compound 7, compound 8, compound 9, compound 10, compound 11, compound 12, compound 13, compound 14, compound 15, compound 16, compound 17, compound 18, compound 19, and compound 20, and applied to spring wheat (TRZAS), winter wheat (TRZAW), and spring barley (HORVS) and the phytotoxicity of the herbicidal compositions was measured. […]

In data set [2] the test system is pigweed (AMARE). Put plainly: Postemergence greenhouse trial, % visual injury on pigweed. It is filed as in vivo, Amaranthus retroflexus. The settings on record: Amaranthus retroflexus, post-emergence, read-out: % visual injury, Ob. The protocol: as §1, §2, §3
as §4, with “evaluated. […]” for “evaluated.”
The safener cloquintocet-acid and a number of agriculturally acceptable esters and salts (-mexyl, -dimethylammonium salt and -triethylammonium salt) were combined in varying ratios with compound 1 and applied to spring wheat (TRZAS), winter wheat (TRZAW), and spring barley (HORVS), and the phytotoxicity of the herbicidal compositions was measured. […]

In data set [3] the test system is spring barley (HORVS). As to the kind of experiment: Postemergence greenhouse trial, % visual injury on spring barley. Type of data set: in vivo, Hordeum vulgare. The protocol: as §1, §2, §3, §5
Data set [4] concerns kochia (KCHSC). As to the kind of experiment: Postemergence greenhouse trial, % visual injury on kochia. Type of data set: in vivo, Kochia scoparia. The settings on record: Bassia scoparia, post-emergence, read-out: % visual injury, Ob; for pest or weed control at 4.375 g/ha / pest or weed control at 8.75 g/ha / pest or weed control at 17.5 g/ha / pest or weed control at 35 g/ha / pest or weed control at 70 g/ha: KCHSC, applied alone. The protocol: as §1, §2
as §3, with “mixtures. […]” for “mixtures.”

For data set [5], the system named is spring wheat (TRZAS). Put plainly: Postemergence greenhouse trial, % visual injury on spring wheat. It is filed as in vivo, Triticum aestivum. The method, then:
as §1, §2, §3, §4, §5

The test system of data set [6] is common poppy (PAPRH). As to the kind of experiment: Postemergence greenhouse trial, % visual injury on common poppy. It is filed as in vivo, Papaver rhoeas. The settings on record: Papaver rhoeas, post-emergence, PAPRH, applied alone, read-out: % visual injury, Ob. The protocol:
as §1, §2
as §3, with “mixtures. […]” for “mixtures.”

For data set [7], the system named is winter rape (BRSNW). As to the kind of experiment: Postemergence greenhouse trial, % visual injury on winter rape. Type of data set: in vivo, Brassica napus. The settings on record: Brassica napus, post-emergence, BRSNW, applied alone, read-out: % visual injury, Ob. The method, then: as §1, §2, §3
as §4, with “evaluated. […]” for “evaluated.”

The mark [8] stands for this setting: HORVS, 4.375 g/ha, applied alone.
Setting [9] is: HORVS, 8.75 g/ha, applied alone.
The mark [10] stands for this setting: HORVS, 17.5 g/ha, applied alone.
The mark [11] stands for this setting: TRZAS, 4.375 g/ha, applied alone.
Where [12] appears, read: TRZAS, 8.75 g/ha, applied alone.
The mark [13] stands for this setting: TRZAS, 17.5 g/ha, applied alone.

With `Nc1c(F)c(-c2ccc3cc[nH]c3c2F)nc(C(=O)[O-])c1Cl.[K+]` [compound 7], the pest or weed control at 20 g/ha in data set [1] came to 90%; in data set [2], 88%; in data set [4], 65%. The “% visual injury, Ob” value in data set [3] (alone, 20 g/ha) was found to be 5%; in data set [5] (alone, 20 g/ha), 10%.

With `COC(=O)c1nc(-c2ccc3sccc3c2)c(F)c(N)c1Cl` [compound 18], the pest or weed control at 4.375 g/ha in data set [6] was 90%; in data set [4], 30%. In addition, the pest or weed control at 8.75 g/ha in data set [6] came out at 90%; in data set [4], 40%. Also, the pest or weed control at 17.5 g/ha in data set [6] came to 93%; in data set [4], 75%. Besides, the pest or weed control at 35 g/ha in data set [6] and in data set [4] was 93% each time. The pest or weed control at 70 g/ha was found to be 95% in data set [6] and 90% in data set [4]. In addition, the “% visual injury, Ob” value in data set [3] (setting [8]) stood at 15%; in data set [3] (setting [9]), 25%; in data set [3] (setting [10]), 40%; in data set [3] (HORVS, 35 g/ha, applied alone), 50%; in data set [3] (HORVS, 70 g/ha, applied alone) it was 70%; in data set [5] (setting [11]), 10%. In addition, the “% visual injury, Ob” value in data set [5] (setting [12]) was found to be 25%; in data set [5] (setting [13]), 40%; in data set [5] (TRZAS, 35 g/ha, applied alone), 50%; in data set [5] (TRZAS, 70 g/ha, applied alone), 70%.

As for `COc1c(N)nc(-c2ccc3sccc3c2)nc1C(=O)O` [compound 19], the pest or weed control at 4.375 g/ha in data set [6] was 80%; in data set [4] it was 0%. For the same compound, the pest or weed control at 8.75 g/ha in data set [6] amounted to 80%; in data set [4], 0%. The pest or weed control at 17.5 g/ha is 85% in data set [6] and 0% in data set [4]. The pest or weed control at 35 g/ha came out at 90% in data set [6] and 10% in data set [4]. Further, the pest or weed control at 70 g/ha in data set [6] turned out to be 95%; in data set [4], 60%. Moreover, the “% visual injury, Ob” value came to 0% in data set [3] (setting [8]); 10% in data set [3] (setting [9]); 10% in data set [3] (setting [10]); 15% in data set [3] (HORVS, 35 g/ha, applied alone); 35% in data set [3] (HORVS, 70 g/ha, applied alone); 0% in data set [5] (setting [11]). For the same compound, the “% visual injury, Ob” value in data set [5] (setting [12]) came out at 10%; in data set [5] (setting [13]), 30%; in data set [5] (TRZAS, 35 g/ha, applied alone), 40%; in data set [5] (TRZAS, 70 g/ha, applied alone), 50%. In data set [7] (4.375 g/ha), the plant injury at 4.375 g/ha amounted to 0%. Besides, the plant injury at 8.75 g/ha in data set [7] (8.75 g/ha) was found to be 10%. Further, the plant injury at 17.5 g/ha in data set [7] (17.5 g/ha) is 20%. Further, in data set [7] (35 g/ha), the plant injury at 35 g/ha amounted to 25%. For the same compound, the plant injury at 70 g/ha in data set [7] (70 g/ha) was determined as 30%.
